Patent publication EP2873675A1, “Peptide-based peroxidase inhibitors and methods of using same” (The Medical College of Wisconsin, Inc., priority 2013, dated 2015)
Residues, ends and D or L forms follow the SMILES beside them.

Key:
C57BL/6J mice = experiment: Acute lung injury: pulmonary retention of Q-dot labeled EMPs; type: in vivo; conditions: pretreatment and treatment of EMP-injected mice
Method: KYC Inhibits Acute Lung Injury. Inflammation and sepsis induce the release of endothelial cell microparticles (EMPs). Increased production of EMPs is hypothesized to play a causal role in the mechanisms mediating acute lung injury (ALI). To test this hypothesis, the inventors incubated human umbilical vein endothelial cells with PAI-1, which is well-recognized for inducing endothelial cells to generate EMPs. The EMPs were collected by ultracentrifugation, resuspended in physiological saline solution and then labeled with Q-dots. The Q-dot labeled EMPs were counted and then injected into C57BL/6J mice to achieve a final concentration of 100,000 EMPs/mL of blood. Mice were pretreated with phosphate buffered saline (Fig. 6) or KYC and then were injected with Q-dot labeled EMPs alone or Q-dot labeled EMPs plus KYC (Fig. 6).

[1] = system: OVA-sensitized C57BL/6J mice; experiment: OVA murine model of experimentally-induced asthma (lung histology); type: in vivo; conditions: 0.3 mg/kg every other day for 10 days
From the text: Murine Model of Experimentally-Induced Asthma. C57BL/6J mice (12-14 wk old) from Jackson Laboratory (Bar Harbor, ME) were housed in sterile autoclavable microisolation cages and fed standard laboratory mouse chow and water ad libitum. All protocols were approved by the Institutional Animal Care and Use Committee (IACUC) of the Medical College of Wisconsin.
C57BL/6J mice were divided into three groups; a control group (Control), an ovalbumin (OVA)-sensitized group and an OVA-sensitized group treated with KYC. OVA sensitization was achieved using a modification of a protocol previously described by de Siqueira et al^15 (Fig. 1). […] When mice inhale aerosolized OVA, robust allergic responses are routinely observed.
Briefly, on day one, mice were anesthetized (halothane; Halocarbon Laboratories, River Edge, NJ) and a heat-denatured OVA fragment (∼80 mg, 5 × 2 × 2 mm) was implanted subcutaneously in the dorsal aspect of the neck. The incision was closed with stainless steel clips and the mouse was allowed to recover. Implantation of the heat-denatured OVA fragment initiates sensitization. On day fifteen, the implanted mice were exposed to aerosolized OVA (6% in PBS) for 30 minutes every other day for ten days. Twenty-four hours after the last OVA challenge, the mice were deeply anesthetized (halothane), sacrificed by exsanguination and the lungs removed for analysis. […]

MPO = experiment: MPO-mediated LDL oxidation (conjugated diene formation, absorbance at 234 nm); type: biochemical; conditions: for conjugated diene formation in the LDL solution: for more than 2 hours
Method: MPO-mediated oxidation of LDL. Reaction mixtures contained LDL (0.15 mg/ml), NaNO2 (100 µM), H2O2 (300 µM), MPO (20 nM) and various concentrations of KYC in a potassium phosphate buffer (100 mM, pH 7.4) containing DTPA (100 µM). LDL oxidation was monitored at 234 nm at room temperature on a HP UV/VIS spectrometer. Absorbance traces represent the average of duplicate experiments.
MPO-mediated LDL Oxidation. Reaction mixtures contained LDL (0.15 mg/mL), NaNO2 (100 µM), H2O2 (100 µM), MPO (20 nM) and increasing concentrations of KYC in a phosphate buffer (100 mM, pH 7.4) containing DTPA (100 µM). Rates of LDL oxidation were monitored at room temperature at 234 nm, the wavelength maximum for conjugated dienes.
MPO-mediated LDL Conjugated Diene Formation: Reaction mixtures contained LDL (0.15 mg/mL), NaNO2 (100 µM), H2O2 (100 µM), MPO (20 nM) and increasing concentrations of KYC or equimolar concentrations of various compounds in a phosphate buffer (100 mM, pH 7.4) containing DTPA (100 µM). Rates of LDL conjugated diene formation were determined by following changes in absorbance at 234 nm, the wavelength maximum for conjugated dienes, on a UV-Vis spectrophotometer (Agilent Model 8453) at room temperature.

CC(=O)N[C@@H](CCCCN)C(=O)N[C@@H](Cc1ccc(O)cc1)C(=O)N[C@@H](CS)C(N)=O [KYC, N-acetyl Lysyltyrosylcysteine amide] (Ac-Lys-Tyr-Cys-NH2)
pulmonary retention of Q-dot labeled EMPs (C57BL/6J mice): dramatically decreases pulmonary retention
eosinophil infiltration in the lungs ([1]; H&E): markedly reduce eosinophil infiltration to essentially control levels
collagen deposition in the lungs ([1]; McLetchie trichrome): markedly reduces collagen deposition to control levels
lag time of conjugated diene formation (MPO; 4 µM, MPO/H2O2/nitrite, H2O2 300 µM, lag time without peptide 25 min): 90 min
reduction of the rate of LDL oxidation (MPO; 4 µM, at the end of the 2 hour incubation, on the basis of absorbance values): ~80%
conjugated diene formation in the LDL solution (MPO; 20 µM, MPO/H2O2/nitrite, H2O2 300 µM): totally suppresses
MPO/H2O2/nitrite-mediated LDL oxidation (MPO; 25 µM, H2O2 100 µM, NaNO2 100 µM, MPO 20 nM): completely suppressed
conjugated diene formation in the LDL solution (MPO; 100 µM, MPO/H2O2/nitrite, H2O2 300 µM): totally suppresses
